According to patent publication US12398154B2, “Azaquinazoline pan-KRas inhibitors” (Mirati Therapeutics, Inc., priority 2020, dated 2025):

Key:
KRas Q61H = target: T1, KRas Q61H (Homo sapiens, UniProt P01116, Q61H); experiment: KRas binding assay (TR-FRET displacement);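 note: TR-FRET signal read after one hour at room temperature, IC50 derived by four-parameter fitting of percent-of-control values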
T1 construct: Biotinylated KRas (corresponding to amino acids 1-169, produced at Accelegan Inc.); biotin (biotinylated); purchased Accelegan Inc
Protocol: (§1) The ability of a compound to bind to KRas was measured using a TR-FRET displacement assay. […] After a 60-minute incubation at room temperature, the reaction was measured using a BMG LABTECH CLARIO star Plus via TR-FRET. […] The POC values were fit to a 4-parameter IC50 equation and the IC50 value reported.

KRas G12R = KRas G12R (Homo sapiens, UniProt P01116, G12R); experiment: biochemical;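 note: TR-FRET displacement assay of compound binding to KRas, read after one hour at room temperature, potency from a four-parameter fit of percent-of-control values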
Protocol: as §1

KRas G12S = KRas G12S (Homo sapiens, UniProt P01116, G12S); experiment: biochemical;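 note: TR-FRET displacement binding to KRas, read after one hour incubation at room temperature, IC50 from four-parameter fit of percent of control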
Protocol: as §1

KRas G12C = KRas G12C (Homo sapiens, UniProt P01116, G12C); experiment: biochemical;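 note: binding to KRas assessed by TR-FRET displacement after one hour incubation at room temperature, potency fitted from percent-of-control values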
Protocol: as §1

KRas G12V = KRas G12V (Homo sapiens, UniProt P01116, G12V); experiment: biochemical;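 note: KRas binding measured by TR-FRET displacement at room temperature, IC50 fitted from percent of control values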
Protocol: as §1

KRas G13D = target: T2, KRas G13D (Homo sapiens, UniProt P01116, G13D); experiment: KRas binding assay (TR-FRET displacement);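 note: One-hour room temperature incubation before TR-FRET reading, IC50 from a four-parameter curve fit to percent-of-control data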
T2 construct: Biotinylated KRas (corresponding to amino acids 1-169, produced at Accelegan Inc.); biotin (biotinylated); purchased Accelegan Inc
Protocol: as §1

KRas G12D = KRas G12D (Homo sapiens, UniProt P01116, G12D); experiment: biochemical;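 note: TR-FRET displacement binding assay on KRas, read after a one-hour incubation at room temperature, IC50 fitted from percent-of-control values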
Protocol: as §1

KRas G12A = KRas G12A (Homo sapiens, UniProt P01116, G12A); experiment: biochemical;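 note: binding to KRas measured by TR-FRET displacement after one hour at room temperature, IC50 from a four-parameter fit of percent-of-control values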
Protocol: as §1

KRas WT = KRas WT (Homo sapiens, UniProt P01116); experiment: biochemical;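 note: binding to KRas read as TR-FRET displacement after a one-hour room-temperature incubation, IC50 derived from percent-of-control values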
Chain of KRas WT (P01116 1-169 isoform P01116-2): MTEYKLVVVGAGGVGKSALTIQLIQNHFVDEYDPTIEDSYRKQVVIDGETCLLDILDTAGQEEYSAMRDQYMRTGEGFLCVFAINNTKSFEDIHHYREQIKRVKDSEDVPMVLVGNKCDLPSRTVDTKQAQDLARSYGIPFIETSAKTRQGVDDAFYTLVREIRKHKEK
Protocol: as §1

Chain of KRas G12R (P01116 1-169 isoform P01116-2 G12R): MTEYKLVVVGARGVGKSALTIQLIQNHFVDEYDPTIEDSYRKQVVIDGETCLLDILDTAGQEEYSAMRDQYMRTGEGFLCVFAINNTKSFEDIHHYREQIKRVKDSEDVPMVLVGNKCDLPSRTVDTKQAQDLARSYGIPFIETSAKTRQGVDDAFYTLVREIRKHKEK
Chain of KRas G12C (P01116 1-169 isoform P01116-2 G12C): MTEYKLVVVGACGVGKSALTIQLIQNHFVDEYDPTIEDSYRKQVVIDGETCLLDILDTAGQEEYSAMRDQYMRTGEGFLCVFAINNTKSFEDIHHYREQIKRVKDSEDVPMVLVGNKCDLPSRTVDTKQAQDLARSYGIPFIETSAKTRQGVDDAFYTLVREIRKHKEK
Chain of KRas G12V (P01116 1-169 isoform P01116-2 G12V): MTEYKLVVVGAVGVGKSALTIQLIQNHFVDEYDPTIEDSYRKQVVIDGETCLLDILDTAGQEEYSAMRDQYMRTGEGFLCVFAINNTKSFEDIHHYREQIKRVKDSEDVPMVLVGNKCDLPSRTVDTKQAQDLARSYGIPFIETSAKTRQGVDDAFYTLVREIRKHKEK
Chain of KRas G12D (P01116 1-169 isoform P01116-2 G12D): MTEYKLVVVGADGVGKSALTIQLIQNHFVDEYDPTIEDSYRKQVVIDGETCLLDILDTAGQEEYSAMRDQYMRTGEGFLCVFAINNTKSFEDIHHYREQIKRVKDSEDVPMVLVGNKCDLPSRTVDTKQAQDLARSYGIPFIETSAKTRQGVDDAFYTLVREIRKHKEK
T2 sequence (P01116 1-169 isoform P01116-2 G13D): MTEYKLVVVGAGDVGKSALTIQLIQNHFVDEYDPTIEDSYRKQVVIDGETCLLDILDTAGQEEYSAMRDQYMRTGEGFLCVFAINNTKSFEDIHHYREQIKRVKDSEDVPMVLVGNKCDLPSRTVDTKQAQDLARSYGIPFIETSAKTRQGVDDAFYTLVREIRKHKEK
Chain of KRas G12A (P01116 1-169 isoform P01116-2 G12A): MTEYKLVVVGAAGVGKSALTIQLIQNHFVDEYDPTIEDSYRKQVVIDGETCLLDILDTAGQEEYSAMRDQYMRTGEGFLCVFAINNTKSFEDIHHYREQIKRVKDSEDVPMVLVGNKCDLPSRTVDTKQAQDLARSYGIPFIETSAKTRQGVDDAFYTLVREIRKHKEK
Chain of KRas G12S (P01116 1-169 isoform P01116-2 G12S): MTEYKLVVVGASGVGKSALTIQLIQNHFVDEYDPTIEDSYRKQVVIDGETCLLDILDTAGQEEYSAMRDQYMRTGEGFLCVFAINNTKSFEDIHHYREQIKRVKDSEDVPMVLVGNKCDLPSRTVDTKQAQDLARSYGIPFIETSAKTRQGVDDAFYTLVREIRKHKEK
T1 sequence (P01116 1-169 isoform P01116-2 Q61H): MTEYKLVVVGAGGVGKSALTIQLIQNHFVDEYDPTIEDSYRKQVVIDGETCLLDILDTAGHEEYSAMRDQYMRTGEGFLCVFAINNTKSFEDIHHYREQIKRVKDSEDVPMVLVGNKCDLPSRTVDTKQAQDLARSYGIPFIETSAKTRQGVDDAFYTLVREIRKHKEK

SMILES	IC50 (KRas Q61H) [nM]	IC50 (KRas G12R) [µM]	IC50 (KRas G12S) [µM]	IC50 (KRas G12C) [µM]	IC50 (KRas G12V) [µM]	IC50 (KRas G13D) [nM]	IC50 (KRas G12D) [µM]	IC50 (KRas G12A) [µM]	IC50 (KRas WT) [µM]
O=CNC1CCN(c2nc(OCC34CCCN3CCC4)nc3c(F)c(-c4cccc5cccc(F)c45)ncc23)CC1 [Example 244, N-(1-(8-fluoro-7-(8-fluoronaphthalen-1-yl)-2-((hexahydro-1H-pyrrolizin-7a-yl)methoxy)pyrido[4,3-d]pyrimidin-4-yl)piperidin-4-yl)formamide]	5080	3.1	3.06	2.82	3.57	4860	18.2	1.85	5.14
Fc1c(-c2cccc3cccc(F)c23)ncc2c(NCc3cn[nH]c3)nc(OCC34CCCN3CCC4)nc12 [Example 93, N-((1H-pyrazol-4-yl)methyl)-8-fluoro-7-(8-fluoronaphthalen-1-yl)-2-((hexahydro-1H-pyrrolizin-7a-yl)methoxy)pyrido[4,3-d]pyrimidin-4-amine]	21800	3.39	10.2	4.05	2.93	20400	83.6	7.84	14.9
O=C1CC(CNc2nc(OCC34CCCN3CCC4)nc3c(F)c(-c4cccc5cccc(F)c45)ncc23)CN1 (stereo not drawn) [Example 29, 4-(((8-fluoro-7-(8-fluoronaphthalen-1-yl)-2-((hexahydro-1H-pyrrolizin-7a-yl)methoxy)pyrido[4,3-d]pyrimidin-4-yl)amino)methyl)pyrrolidin-2-one]	13900	4.38	3.11	4.32	1.96	8190	20.5	6.2	5.84
Fc1c(-c2cccc3cccc(F)c23)ncc2c(N3CCCC(c4nc[nH]n4)C3)nc(OCC34CCCN3CCC4)nc12 (stereo not drawn) [Example 30, 4-(3-(1H-1,2,4-triazol-3-yl)piperidin-1-yl)-8-fluoro-7-(8-fluoronaphthalen-1-yl)-2-((hexahydro-1H-pyrrolizin-7a-yl)methoxy)pyrido[4,3-d]pyrimidine]	2900	1.27	1.45	1.29	0.8	2000	0.209	1.76	1.74
O=c1[nH][nH]cc1CNc1nc(OCC23CCCN2CCC3)nc2c(F)c(-c3cccc4cccc(F)c34)ncc12 [Example 230, 4-(((8-fluoro-7-(8-fluoronaphthalen-1-yl)-2-((hexahydro-1H-pyrrolizin-7a-yl)methoxy)pyrido[4,3-d]pyrimidin-4-yl)amino)methyl)-1H-pyrazol-3(2H)-one]	23300	9.85	19.7	10.6	7.99	35500	38.8	11.3	28.4
Fc1c(-c2cccc3cccc(F)c23)ncc2c(NCc3nnc4cccnn34)nc(OCC34CCCN3CCC4)nc12 [Example 122, N-([1,2,4]triazolo[4,3-b]pyridazin-3-ylmethyl)-8-fluoro-7-(8-fluoronaphthalen-1-yl)-2-((tetrahydro-1H-pyrrolizin-7a(5H)-yl)methoxy)pyrido[4,3-d]pyrimidin-4-amine]	88200	12.4	21.7	3.47	6.91	86400	≥ 100	14.4	26
Fc1c(-c2cccc3cccc(F)c23)ncc2c(NCc3ncc4cc[nH]c4n3)nc(OCC34CCCN3CCC4)nc12 [Example 92, N-((7H-pyrrolo[2,3-d]pyrimidin-2-yl)methyl)-8-fluoro-7-(8-fluoronaphthalen-1-yl)-2-((hexahydro-1H-pyrrolizin-7a-yl)methoxy)pyrido[4,3-d]pyrimidin-4-amine]	17300	1.98	6.87	3.41	1.72	8560	20.8	6.55	8.8
OC12CC(Nc3nc(OCC45CCCN4CCC5)nc4c(F)c(-c5cccc6cccc(F)c56)ncc34)(C1)C2 [Example 90, 3-((8-fluoro-7-(8-fluoronaphthalen-1-yl)-2-((hexahydro-1H-pyrrolizin-7a-yl)methoxy)pyrido[4,3-d]pyrimidin-4-yl)amino)bicyclo[1.1.1]pentan-1-ol]	19600	4.19	6.48	4.18	3.47	8210	40.2	5.14	7.24
Fc1c(-c2cccc3cccc(F)c23)ncc2c(NCCCn3ccnn3)nc(OCC34CCCN3CCC4)nc12 [Example 118, N-(3-(1H-1,2,3-triazol-1-yl)propyl)-8-fluoro-7-(8-fluoronaphthalen-1-yl)-2-((tetrahydro-1H-pyrrolizin-7a(5H)-yl)methoxy)pyrido[4,3-d]pyrimidin-4-amine]	14000	11.3	6.24	7.45	7.53	8810	16.1	8.14	8.55
OC1CC2(CCCN(c3nc(OCC45CCCN4CCC5)nc4c(F)c(-c5cccc6cccc(F)c56)ncc34)C2)C1 (stereo not drawn) [Example 235, 6-(8-fluoro-7-(8-fluoronaphthalen-1-yl)-2-((hexahydro-1H-pyrrolizin-7a-yl)methoxy)pyrido[4,3-d]pyrimidin-4-yl)-6-azaspiro[3.5]nonan-2-ol]	3360	2.87	2.01	1.65	1.7	2710	2.66	2.15	2.65
O=S1(=O)NCCC2(CCCN(c3nc(OCC45CCCN4CCC5)nc4c(F)c(-c5cccc6cccc(F)c56)ncc34)C2)N1 (stereo not drawn) [Example 247, 8-(8-fluoro-7-(8-fluoronaphthalen-1-yl)-2-((hexahydro-1H-pyrrolizin-7a-yl)methoxy)pyrido[4,3-d]pyrimidin-4-yl)-2-thia-1,3,8-triazaspiro[5.5]undecane 2,2-dioxide]	2060	2.56	2.15	2.68	1.83	1180	0.429	2.11	1.59
CNS(=O)(=O)C1CCCN(c2nc(OCC34CCCN3CCC4)nc3c(F)c(-c4cccc5cccc(F)c45)ncc23)C1 (stereo not drawn) [Example 237, 1-(8-fluoro-7-(8-fluoronaphthalen-1-yl)-2-((hexahydro-1H-pyrrolizin-7a-yl)methoxy)pyrido[4,3-d]pyrimidin-4-yl)-N-methylpiperidine-3-sulfonamide]	6380	9.74	8.92	7.59	7.61	8290	9.56	5.34	4.36
Fc1c(-c2cccc3cccc(F)c23)ncc2c(N3CCCC4(COC4)C3)nc(OCC34CCCN3CCC4)nc12 [Example 220, 6-(8-fluoro-7-(8-fluoronaphthalen-1-yl)-2-((tetrahydro-1H-pyrrolizin-7a(5H)-yl)methoxy)pyrido[4,3-d]pyrimidin-4-yl)-2-oxa-6-azaspiro[3.5]nonane]	7470	8.67	6.31	8.25	6.07	6700	10.8	6.75	5.57
O=S1(=O)NCC2(CCCN(c3nc(OCC45CCCN4CCC5)nc4c(F)c(-c5cccc6cccc(F)c56)ncc34)C2)N1 (stereo not drawn) [Example 252, 7-(8-fluoro-7-(8-fluoronaphthalen-1-yl)-2-((tetrahydro-1H-pyrrolizin-7a(5H)-yl)methoxy)pyrido[4,3-d]pyrimidin-4-yl)-2-thia-1,3,7-triazaspiro[4.5]decane 2,2-dioxide]	9	0.027	0.008	0.017	0.017	6	0.011	0.005	0.007
OC1CC2CC1CN(c1nc(OCC34CCCN3CCC4)nc3c(F)c(-c4cccc5cccc(F)c45)ncc13)C2 (stereo not drawn) [Example 81, 3-(8-fluoro-7-(8-fluoronaphthalen-1-yl)-2-((hexahydro-1H-pyrrolizin-7a-yl)methoxy)pyrido[4,3-d]pyrimidin 4-yl)-3-azabicyclo[3.2.1]octan-6-ol]	1170	1.04	0.531	0.891	0.802	860	3.56	0.759	0.864
O=C1NCC2(CCN(c3nc(OCC45CCCN4CCC5)nc4c(F)c(-c5cccc6cccc(F)c56)ncc34)CC2)N1 [Example 217, 8-(8-fluoro-7-(8-fluoronaphthalen-1-yl)-2-((tetrahydro-1H-pyrrolizin-7a(5H)-yl)methoxy)pyrido[4,3-d]pyrimidin-4-yl)-1,3,8-triazaspiro[4.5]decan-2-one]	19500	7.57	11.3	9.88	5.16	11600	64.4	8.99	14
